26 molecules from patent US20230183179A1, “NOVEL CELL METABOLISM MODULATING COMPOUNDS AND USES THEREOF” (CRESCENTA BIOSCIENCES, priority 2020, published 2023) can be followed below.

In assay [1] the test system is differentiated 3T3-L1 mouse adipocyte cells. In words: Adipocyte glucose consumption in differentiated 3T3-L1 cells (colorimetric glucose assay of the medium). The format is cell-based. Particulars: 3T3-L1, 24 h, compound 10 μM, loss of glucose from culture medium, mean fold change (compound/DMSO). As for the experimental part:
Activity of compounds on adipocyte glucose consumption was tested in differentiated 3T3-L1 mouse adipocyte cells. 3T3-L1 preadipocytes (ATCC) were routinely cultured in a growth medium composed of DMEM high-glucose (Sigma), 10% FBS (Gibco), 10 U/ml penicillin and 10 μg/ml streptomycin (P/S; Gibco). To induce adipogenic differentiation, a confluent layer of 3T3-L1 cells were incubated with the growth medium containing 2 μM rosiglitazone, 1 μM dexamethasone, 500 μM IBMX, and 1 μg/ml insulin (Sigma). Forty-eight (48) hours later (on day 2) and on days 4 and 6, medium of the cells was replaced with fresh medium containing 1 μg/ml insulin. On days 8 and 10, the medium was refreshed with regular growth medium and addition of insulin was omitted. On day 11, medium of the cells were 10 replaced with fresh medium containing either the indicated compounds (10 μM) or the vehicle in which the compounds were dissolved (DMSO). The final concentration of DMSO was 0.1% (v/v). Growth medium containing 0.1% DMSO was incubated in culture wells containing no cells and used as control. 24 hours later, medium was harvested and subjected to centrifugation at 10,000 g for 5 min. Glucose concentration in the supernatants was determined using a 15 colorimetric assay (Glucose Assay Kit I, Eton Biosciences). Glucose consumption in compound and vehicle treated cells was measured as loss of glucose from the culture medium and represented as mean fold change (compound/DMSO)±standard deviation (SD).

The target of assay [2] is T1, His6 tagged human recombinant FABP4 (Homo sapiens, UniProt P15090).
T1 construct: purchased Cayman Chemicals 10009549
T1 sequence (P15090 whole entry): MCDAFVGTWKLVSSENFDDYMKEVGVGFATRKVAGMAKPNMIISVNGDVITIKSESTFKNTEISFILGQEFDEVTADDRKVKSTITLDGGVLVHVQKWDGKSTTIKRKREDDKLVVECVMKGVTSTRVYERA
The experiment in a line: FABP4 TR-FRET assay: displacement of fluorescent fatty acid BODIPY FL C12. The following applies: inhibition of BODIPY FL C12 binding to His6-FABP4; 1.2 μL of 1.085 mM compound in DMSO per well; triplicates, mean percent inhibition. From the text: Activity of compounds with FABP4 was profiled using a Terbium (Tb) based time resolved fluorescence energy transfer (TR-FRET) assay. The assay measures the compound mediated displacement of the fluorescent fatty acid BODIPY FL C12 (Thermo Fisher; catalog number D3822) from His6 tagged human recombinant FABP4 (His6-FABP4; Cayman Chemicals, catalog number 10009549) via recording the energy transfer from TB donor molecule on anti-His6-tag antibody to acceptor BODIPY moiety. Briefly, compounds and BODIPY FL C12 were prepared at a concentration of 1.085 mM and 4.2 μM, respectively, in DMSO. 1.2 μL of each compound or DMSO (vehicle control) and 1.2 μL of BODIPY FL C12 were added into the wells of a 384-well black polypropylene plate. His6-FABP4 and Tb anti-His6 antibody were prepared in the assay buffer (25 mM Tris/HCl, pH 7.4, 0.4 mg/ml γ-globulins, 0.010% NP-40, 1 mM DTT) at a concentration of 83 nM and 49.6 nM, respectively. The protein and antibody solutions were then mixed at a ratio of 34:7 (v/v) and incubated on ice for 30 minutes. The assay was initiated by adding 41 μL of the resulting protein/antibody solution into the wells containing the compounds and BODIPY FL C12. The plate was centrifuged and incubated at room temperature for 10 min. The TR-FRET signals were recorded using an EnVision Multilabel plate reader (PerkinElmer; TB excitation 320 nm, BODIPY FL C12 emission 520 nm; TB emission 615 nm). Relative fluorescence ratio (520 nm*10,000/615 nm) were used to calculate the compound mediated inhibition of BODIPY C12 FL fatty acid binding to FABP4. The compounds were tested in triplicates and the results were represented as mean percent inhibition (compound*100/DMSO)±standard deviation (SD). Glucose consumption and FABP4 inhibition is shown below in Table 3 below. The compounds showing no inhibition of activity in the TR-FRET assay are marked as N.A. N.D. stands for “not determined”.

Consider `CN(CC(=O)O)c1cc(-c2ccccc2)c2cc(CCc3cccc(Cl)c3)ccc2n1` [2-({6-[2-(3-chlorophenyl)ethyl]-4-phenylquinolin-2-yl}(methyl)amino)acetic acid], for which the fold induction at 10 µM in assay [1] came to 1.47. Besides, the inhibition at 1085 µM (stock) in assay [2] came to 57.1%.
As for `O=C(O)COc1cc(-c2ccccc2)c2cc(Cl)ccc2n1` [2-[(6-chloro-4-phenylquinolin-2-yl)oxy]acetic acid], in assay [1], the fold induction at 10 µM came to 1.1. The inhibition at 1085 µM (stock) in assay [2] came to 34.4%.
For the molecule `CCCc1ccc2nc(OCC(=O)O)cc(-c3cccc(C#N)c3)c2c1` [2-([4-(3-cyanophenyl)-6-propylquinolin-2-yl]oxy}acetic acid], the fold induction at 10 µM in assay [1] was 1.06. In assay [2], the inhibition at 1085 µM (stock) worked out at 34.8%.
Take `CN(CC(=O)O)c1cc(-c2ccccc2)c2cc(CCc3ccnc4[nH]ccc34)ccc2n1` [2-{methyl[4-phenyl-6-(2-{1H-pyrrolo[2,3-b]pyridin-4-yl}ethyl)quinolin-2-yl]amino}acetic acid]: the fold induction at 10 µM in assay [1] turned out to be 1.26. Also, the inhibition at 1085 µM (stock) in assay [2] was 29.8%.
`CCc1ccc2nc(OCC(=O)O)cc(-c3cccc(C(N)=O)c3)c2c1` [2-{[4-(3-carbamoylphenyl)-6-ethylquinolin-2-yl]oxy}acetic acid]: the fold induction at 10 µM in assay [1] came out at 0.93. The inhibition at 1085 µM (stock) in assay [2] is 30.4%.
For `CCCCCCc1ccc2nc(N(C)CC(=O)O)c(C)c(N3CCOCC3)c2c1` [2-{[6-hexyl-3-methyl-4-(morpholin-4-yl)quinolin-2-yl](methyl)amino}acetic acid] the same measures were 1.17 and 93.8%.
The corresponding values for `CCCc1cccc(-c2ccc3nc(N(C)CC(=O)O)cc(-c4ccccc4)c3c2)c1` [2-{methyl[4-phenyl-6-(3-propylphenyl)quinolin-2-yl]amino}acetic acid] are 1.07 and 61.2%.
As to `CCCCCc1ccc2nc(OCC(=O)O)cc(-c3cccc(C(N)=O)c3)c2c1` [2-{[4-(3-carbamoylphenyl)-6-pentylquinolin-2-yl]oxy}acetic acid], the fold induction at 10 µM in assay [1] was 1.02. The inhibition at 1085 µM (stock) in assay [2] was 74.2%.
For the molecule `COc1ccc(CCc2ccc3nc(N(C)CC(=O)O)cc(-c4ccccc4)c3c2)cc1` [2-({6-[2-(4-methoxyphenyl)ethyl]-4-phenylquinolin-2-yl}(methyl)amino)acetic acid], the fold induction at 10 µM in assay [1] came out at 1.26. In addition, in assay [2], the inhibition at 1085 µM (stock) was 15%.
On to `CCCCc1ccc2nc(N(C)CC(=O)O)cc(-c3ccccc3C)c2c1` [2-{[6-butyl-4-(2-methylphenyl)quinolin-2-yl](methyl)amino}acetic acid], for which the fold induction at 10 µM in assay [1] is 1.27. Moreover, in assay [2], the inhibition at 1085 µM (stock) turned out to be 99.7%.
For `CCCCCCCCc1ccc2nc(N(CC)CC(=O)O)cc(-c3ccc(F)cc3)c2c1` [2-{ethyl[4-(4-fluorophenyl)-6-octylquinolin-2-yl]amino}acetic acid] the same measures were 1.25 and 65.8%.
Regarding `CCCCCCCCc1ccc2nc(N(CC(=O)O)CC(C)C)cc(-c3ccc(F)cc3)c2c1` [2-{[4-(4-fluorophenyl)-6-octylquinolin-2-yl](2-methylpropyl)amino}acetic acid], the fold induction at 10 µM in assay [1] was determined as 1.28. In addition, the inhibition at 1085 µM (stock) in assay [2] amounted to 68%.
For `CCCCCCc1ccc2nc(N(C)CC(=O)O)cc(Oc3cccc(F)c3)c2c1` [2-{[4-(3-fluorophenoxy)-6-hexylquinolin-2-yl](methyl)amino}acetic acid] the same measures were 1.21 and 98.8%.
The corresponding values for `COc1cccc(CCc2ccc3nc(N(C)CC(=O)O)cc(-c4ccccc4)c3c2)c1` [2-({6-[2-(3-methoxyphenyl)ethyl]-4-phenylquinolin-2-yl}(methyl)amino)acetic acid] are 1.31 and 93.2%.
For `CN(CC(=O)O)c1cc(-c2ccccc2)c2cc(CCc3ccc(Cl)cc3)ccc2n1` [2-({6-[2-(4-chlorophenyl)ethyl]-4-phenylquinolin-2-yl}(methyl)amino)acetic acid] the same measures were 1.43 and 56.4%.
Regarding `CCCCCCc1ccc2nc(-n3ccc(C(=O)O)c3)cc(-c3ccccc3)c2c1` [1-(6-hexyl-4-phenylquinolin-2-yl)-1H-pyrrole-3-carboxylic acid], the fold induction at 10 µM in assay [1] stood at 1.09. Besides, the inhibition at 1085 µM (stock) in assay [2] was under 0%.
`CN(CC(=O)O)c1cc(-c2ccccc2)c2cc(CCCc3ccccc3)ccc2n1` [2-{methyl[4-phenyl-6-(3-phenylpropyl)quinolin-2-yl]amino}acetic acid]: the fold induction at 10 µM in assay [1] worked out at 1.31. The inhibition at 1085 µM (stock) in assay [2] turned out to be 97%.
As to `CN(CC(=O)O)c1cc(-c2ccccc2)c2cc(CCc3ccc4ncccc4c3)ccc2n1` [2-[methyl({4-phenyl-6-[2-(quinolin-6-yl)ethyl]quinolin-2-yl})amino]acetic acid], in assay [1], the fold induction at 10 µM was 1.4. For the same molecule, the inhibition at 1085 µM (stock) in assay [2] amounted to 34.7%.
As for `CCCCc1ccc2nc(N(C)CC(C)C(=O)O)cc(-c3cccc(C#N)c3)c2c1` (stereo not shown) [3-{[6-butyl-4-(3-cyanophenyl)quinolin-2-yl](methyl)amino}-2-methylpropanoic acid], in assay [1], the fold induction at 10 µM was 1.21. Also, the inhibition at 1085 µM (stock) in assay [2] was 38.7%.
Take `CCCCCCc1ccc2nc(OC(C)C(=O)O)cc(-c3ccncc3)c2c1` (stereo not shown) [2-{[6-hexyl-4-(pyridin-4-yl)quinolin-2-yl]oxy}propanoic acid]: the fold induction at 10 µM in assay [1] was found to be 1.3. In addition, the inhibition at 1085 µM (stock) in assay [2] turned out to be 21%.
As to `CCCc1ccc2nc(OCC(=O)O)cc(-c3cccc(C(N)=O)c3)c2c1` [2-{[4-(3-carbamoylphenyl)-6-propylquinolin-2-yl]oxy}acetic acid], in assay [1], the fold induction at 10 µM came to 1. The inhibition at 1085 µM (stock) in assay [2] came out at 42.9%.
As for `Cc1cccc(CCc2ccc3nc(N(C)CC(=O)O)cc(-c4ccccc4)c3c2)c1` [2-[methyl({6-[2-(3-methylphenyl)ethyl]-4-phenylquinolin-2-yl})amino]acetic acid], in assay [1], the fold induction at 10 µM came to 1.53. The inhibition at 1085 µM (stock) in assay [2] was 50.2%.
Regarding `CCCCCc1ccc2nc(N(C)CC(=O)O)cc(-c3ccccc3)c2c1` [2-[methyl(6-pentyl-4-phenylquinolin-2-yl)amino]acetic acid], the fold induction at 10 µM in assay [1] was 1.32. Further, the inhibition at 1085 µM (stock) in assay [2] came out at 90.5%.
Turning to `CCCCc1ccc2nc(N(C)CC(=O)O)cc(-c3cccc(C(N)=O)c3)c2c1` [2-{[6-butyl-4-(3-carbamoylphenyl)quinolin-2-yl](methyl)amino}acetic acid], the fold induction at 10 µM in assay [1] amounted to 1.13. Also, the inhibition at 1085 µM (stock) in assay [2] worked out at 26.1%.
`CCCCCCCCc1ccc2nc(N(C)CC(=O)O)cc(Oc3ccncc3)c2c1` [2-{methyl [6-octyl-4-(pyridin-4-yloxy)quinolin-2-yl]amino}acetic acid]: the fold induction at 10 µM in assay [1] was determined as 1.14. Besides, the inhibition at 1085 µM (stock) in assay [2] came to 19.4%.
`CCCCc1ccc2nc(N(C)CC(=O)O)cc(-c3ccc(C)cc3)c2c1` [2-{[6-butyl-4-(4-methylphenyl)quinolin-2-yl](methyl)amino}acetic acid]: the fold induction at 10 µM in assay [1] worked out at 1.36. In assay [2], the inhibition at 1085 µM (stock) was found to be 30.8%.

For orientation: fold induction means the signal under treatment as a multiple of the control signal. A word on the inhibition: it is how much of the control response was suppressed.
